The values that follow come from patent US10532109B2, “Peptide-DNA chimeras for treatment of HER overexpressing cancers” (ARIZONA BOARD OF REGENTS ON BEHALF OF ARIZONA STATE …, priority 2016, dated 2020).

Experiment [1] relates to MDA-MB-231 human breast cancer cells (low expression of HER2 receptor). In words: Cancer cell inhibition assay (MTT), MDA-MB-231. The format is cell-based. To be noted: 48, 72, 96 h. The protocol:
BT474 human breast cancer cells (ATCC® HTB-20™, overexpression of HER2) and MDA-MB-231 human breast cancer cells (ATCC® HTB-26™, low expression of HER2 receptor) were cultured at 37° C. in a 5% CO2 atmosphere and grown in Gibco® RPMI 1640 medium supplemented with 10% fetal bovine serum (FBS) and 1% antibiotic-antimycotic mix antibiotic supplement before use.
Exponentially growing BT474 cells and MDA-MB-231 cells were harvested and plated in 96-well plates at a concentration of 2×10^4 cells/well for BT474 cells and 5×10^4 cells/well for MDA-MB231 cells. […] Then 20 μL of MTT (5 mg/mL) was added to each well and the plates were incubated at 37° C. for 4 hours. The supernatant was discarded, and 100 μL of DMSO was added to each well. The absorbance was recorded at 490 nm after 15 minutes. Inhibition of cell growth was obtained by the following formula: […]
Data are reported as the mean of three independent experiments, each run in quintuplicate.

The subject of another experiment is MDA-MB-231 cells. Nature of the experiment: HER2 binding assay (fluorescence microscopy), MDA-MB-231. The format is cell-based, human. Conditions: 1 μM; 1 hour. The protocol: (§1) BT474 cells and MDA-MB-231 cells were grown on glass bottom microwell disks at a cell density of approximately 10,000 cells/well at 37° C. for 48 hours. […] Then the cells were stained using 2.5 μg/mL DAPI (Invitrogen) for 30 minutes after the cells were rinsed with phosphate buffered saline (PBS) for two times. Finally, the cells were fixed with 4% paraformaldehyde for 10 minutes. The fluorescent images were obtained using a fluorescence microscope (Nikon Ti-U, Japan) with red and green filters. Thereafter, all images were recorded and the target cells counted using a 40× oil objective. To ensure accurate intensity measurements, the exposure time (3000 ms) and laser time were kept the same. The mean pixel intensity within the region of interest was calculated. Data are reported as the mean of three independent experiments, each run in quintuplicate. The data was expressed as mean±SD.

Experiment [2] concerns BT474 human breast cancer cells (overexpression of HER2). Nature of the experiment: Cancer cell inhibition assay (MTT), BT474. Conditions: for inhibition at 0.32 µM: BT-474, 320 nM doxorubicin, free or as 6.4 nM IV (1:50 III-doxorubicin); for inhibition at 0.32 µM / inhibition at 0.64 µM: read-out: inhibition of BT474 cell growth; for inhibition at 0.64 µM: BT-474, 640 nM doxorubicin, free or as 12.8 nM IV. The format is cell-based.
Protocol: Exponentially growing BT474 cells and MDA-MB-231 cells were harvested and plated in 96-well plates at a concentration of 2×10^4 cells/well for BT474 cells and 5×10^4 cells/well for MDA-MB231 cells. […] Then 20 μL of MTT (5 mg/mL) was added to each well and the plates were incubated at 37° C. for 4 hours. The supernatant was discarded, and 100 μL of DMSO was added to each well. The absorbance was recorded at 490 nm after 15 minutes. Inhibition of cell growth was obtained by the following formula: Inhibition (%)=(ODTreatment−ODbackground)/(ODNagative control−ODbackground)×100%

The test system of a further experiment is BT474 cells. In words: HER2 binding assay (fluorescence microscopy), BT474. The format is cell-based, human. Conditions: 1 μM; 1 hour. The protocol:
as §1

Entries after “also recorded” stand apart in the source; their conditions may differ. Like-named read-outs stand apart in the source and are kept apart here.

`COc1cccc2c1C(=O)c1c(O)c3c(c(O)c1C2=O)C[C@@](O)(C(=O)CO)C[C@@H]3O[C@H]1C[C@H](N)[C@H](O)[C@H](C)O1` [doxorubicin]: the “fold higher average percent inhibition of MDA-MB-231 by doxorubicin than IV” value is recorded as 1.0-2.3 fold in experiment [1] (160 nM doxorubicin concentration), 1.3-2.0 fold in experiment [1] (320 nM doxorubicin concentration) and 1.6-2.0 fold in experiment [1] (640 nM doxorubicin concentration). The “binding ability to MDA-MB-231 cells (fluorescence on cell surface, in words)” value in the experiment with MDA-MB-231 cells is on record as “relatively weak fluorescence intensity; also recorded: relatively weak ability”. In addition, the results for the inhibition at 0.32 µM in experiment [2] (48 h), in experiment [2] (72 h) and in experiment [2] (96 h) were 19%, 43% and 44%, respectively. In addition, the results for the inhibition at 0.64 µM in experiment [2] (48 h), in experiment [2] (72 h) and in experiment [2] (96 h) were 36%, 68% and 78%, respectively. Further, the inhibition at 0.16 µM in experiment [2] (BT-474, read-out: average inhibition of BT474 cell growth) came out at 10%. Moreover, the “binding ability to BT474 cells (fluorescence on cell surface, in words)” value with BT474 cells is given as “relatively weak fluorescence intensity; also recorded: relatively weak ability”. In addition, in the experiment with BT474 cells, the “binding selectivity between BT474 and MDA-MB-231 cells” value was “did not show any binding selectivity; also recorded: did not shown any selectivity”.

The inhibition is the change of the read-out against control, counted positive when it falls.
